# EPA's ToxValDB 9.5 (doi:10.2903/j.efsa.2006.86r)
# How the values were obtained:
# Typhlodromus pyri = test: LR50; higher = less toxic; conditions: acute; duration: 48 hours; reproduction
# Aphidius rhopalosiphi = test: LR50; higher = less toxic; conditions: acute; duration: 48 hours; reproduction
# Apis mellifera = conditions: acute, mortality
# Coturnix japonica = conditions: acute; oral; mortality
# Daphnia magna = conditions: chronic/long-term; duration: 21 days
# Canidae = conditions: chronic; duration: 1 years; oral; Dog Other; clinical chemistry
smiles,measurement,setting,value
CCS(=O)CCSP(=O)(OC)OC (stereo unspecified) [Oxydemeton-methyl],LR50,Typhlodromus pyri,143 g/ha
same,LR50,Aphidius rhopalosiphi,42.5 g/ha
same,NOEC,Anas platyrhynchos; reproductive,7.65 mg/kg-day
same,NOEL,"Anas platyrhynchos; short-term, oral, feed, mortality",119 mg/kg-day
same,LD50,"Apis mellifera; duration: 48 hours, oral, unspecified",0.2 µg/piece
same,LD50,"Apis mellifera; duration: 72 hours, dermal",0.175 µg/piece
same,LC50,"Oncorhynchus mykiss; acute, duration: 96 hours, mortality",17 µg/mL
same,NOEC,"Oncorhynchus mykiss; chronic/long-term, duration: 98 days",1.8 mg/L
same,LD50,Coturnix japonica,29 mg/kg
same,NOEC,Daphnia magna,0.027 mg/L
same,LC50,"Tagia sp.; acute, duration: 14 days, mortality",115 mg/kg
same,NOEC,"Tagia sp.; chronic/long-term, duration: 56 days, reproduction",412 g/ha
same,LD50,"Rattus norvegicus; acute, oral, mortality",48 mg/kg
same,NOAEL,"Rattus norvegicus; chronic, duration: 2 years, clinical chemistry",0.03 mg/kg-day
same,NOAEL,"Rattus norvegicus; reproduction developmental, M, reproduction",0.15 mg/kg-day
same,NOAEL,"Rattus norvegicus; short-term, duration: 14 days, oral, clinical chemistry",0.15 mg/kg-day
same,NOAEL,"Rattus norvegicus; subchronic, duration: 90 days, oral, clinical chemistry",0.1 mg/kg-day
same,NOAEL,Canidae,0.1 mg/kg-day
same,LD50,"Colinus virginianus; acute, oral, M, mortality",34 mg/kg
same,NOEC,Colinus virginianus; reproduction developmental,0.97 mg/kg-day
same,NOEL,"Colinus virginianus; short-term, oral, diet, mortality",56.6 mg/kg-day
